Read-outs that look alike come from different tables or passages of the source.

From US8481543B2, “Compounds for treating parasitic disease” (Oregon Health & Science University, priority 2008, dated 2013) come the findings set out here.

Assay [1] concerns Plasmodium falciparum 7G8 strain (multidrug-resistant). Description: Antiplasmodial fluorescence-based SyBr Green assay, 7G8 strain. Type of assay: cell-based. Particulars: read-out: Antiplasmodial IC50, 7G8 strain. The procedure: (§1) Parasite culture and drug susceptibility assays: Four different laboratory strains of P. falciparum were cultured in human erythrocytes by standard methods under a low oxygen atmosphere (5% O2, 5% CO2, 90% N2) in an environmental chamber (Trager, W., and J. Jensen. 1976. Human malaria parasites in continuous culture. Science 193:673-675). The culture medium was RPMI 1640, supplemented with 25 mM Hepes buffer, 25 mg/liter gentamicin sulfate, 45 mg/liter hypoxanthine, 10 mM glucose, 2 mM glutamine, and 0.5% Albumax II. The parasites were maintained in fresh human erythrocytes suspended at a 2% hematocrit in complete medium at 37° C. Stock cultures were sub-passaged every 3 to 4 days by transfer of infected red cells to a flask containing complete medium and uninfected erythrocytes.
(§2) In vitro antimalarial activity of the test compounds was assessed by a fluorescence-based method described previously by Smilkstein M., N. Sriwilaijaroen, J. X. Kelly, P. Wilairat, and M. Riscoe. 2004. Simple and inexpensive fluorescence-based technique for high-throughput antimalarial drug screening. Antimicrob Agents Chemother 48:1803-6. The experiments were set up in triplicate in 96 well plates with two-fold dilutions of each compound across the plate in a total volume of 100 μl and at a final red blood cell concentration of 2% (v/v). Stock solutions of each compound were prepared by dissolving in DMSO at 10 mM. […] In every case, an additional determination was performed to ensure bracketing of the IC50 value by at least an order of magnitude. Automated pipeting and dilution was carried out by a programmable Precision 2000 robotic station (Bio-Tek, Winooski, Vt.). An initial parasitemia of 0.2% was attained by addition of normal uninfected red cells to a stock culture of asynchronous parasite infected red cells (PRBC). The plates were incubated for 72 hrs at 37° C. in an atmosphere of 5% CO2, 5% O2, and 90% N2. After this period the SyBr Green I dye-detergent mixture (100 μl) was added and the plates were incubated at room temperature for an hour in the dark and then placed in a 96-well fluorescence plate reader (Gemini-EM, […]) for analysis with excitation and emission wavelength bands centered at 497 and 520 nm, respectively.

Assay [2] relates to Plasmodium falciparum D6 strain (chloroquine sensitive). Put plainly: Antiplasmodial fluorescence-based SyBr Green assay, D6 strain. Type of assay: cell-based. The method, then: as §1, §2
The test system of assay [3] is Plasmodium falciparum Dd2 strain (multidrug-resistant). Description: Antiplasmodial fluorescence-based SyBr Green assay, Dd2 strain. Particulars: read-out: Antiplasmodial IC50, Dd2 strain. Type of assay: cell-based. The method, then: as §1, §2
The test system of assay [4] is P. falciparum strains (D6, Dd2, Tm90.C2B, 7G8). Put plainly: Antiplasmodial SyBr Green assay, summary across strains. Type of assay: cell-based, Plasmodium falciparum. Particulars: for IC50: Plasmodium falciparum. The procedure:
as §1
as §2, with “An initial parasitemia of 0.2% was attained by addition of normal uninfected red cells to a stock culture of asynchronous parasite infected red cells (PRBC). The plates were incubated for 72 hrs at 37° C. in an atmosphere of 5% CO2, 5% O2, and 90% N2.” left out

The subject of assay [5] is Plasmodium falciparum Tm90.C2B strain (multidrug-resistant). Put plainly: Antiplasmodial fluorescence-based SyBr Green assay, Tm90.C2B strain. Type of assay: cell-based. The following applies: read-out: Antiplasmodial IC50, Tm90.C2B strain. The method, then: as §1, §2
Another assay concerns Plasmodium yoelii. Put plainly: Modified Thompson test, suppression of patent infection in mice. The following applies: P. yoelii in CF1 mice; gavage daily for 3 days; smears on 4th day; pharmachins free base in miglyol 812, chloroquine in water. Type of assay: in vivo.
The next assay has as its system P. berghei (ANKA/GFP). Description: Modified 4 day test in infected mice. Type of assay: in vivo. The method, then: Follow-up studies with Pharmachin 128 were preformed in mice infected with P. berghei (ANKA/GFP) using a modified 4 day test. Animals (CF1) were inoculated (iv) with 1 million infected red blood cells, obtained from donor animals, and then randomly sorted into groups of 5 mice each.
In this set of experiments Pharmachin 128 was administered daily by gavage as the citrate salt dissolved in water (100 μl) for each of 4 days. Dosing was set at 64, 16, 4, 2, and 1 mg/kg/day, respectively, and including a no drug control. Blood films were prepared on the 5th day (i.e., the day after the final drug dose), fixed in methanol, stained with Giemsa, and viewed microscopically to assess parasitemia.

Where [6] appears, read: Plasmodium falciparum, multidrug-resistant 7G8 strain, 72 hrs, mean of at least two experiments in triplicate.
Setting [7] is: Plasmodium falciparum, D6, 72 h; read-out: Antiplasmodial IC50, D6 strain.
Setting [8] is: Plasmodium falciparum, multidrug-resistant Dd2 strain, 72 hrs, mean of at least two experiments in triplicate.
[9] abbreviates: multidrug-resistant Tm90.C2B strain, 72 hrs, mean of at least two experiments in triplicate.
The mark [10] stands for this setting: 64 mg/kg/day, gavage, 4 days, citrate salt.
Setting [11] is: P. berghei in CF1 mice, citrate salt in water by gavage daily for 4 days, parasitemia on 5th day.

Procedure for Plasmodium yoelii: Efficacy of compounds in vivo. […] This test monitors suppression of patent infection in female CF1 Swiss albino mice (≈20 gm). A test begins with the inoculation of Plasmodium yoelii parasitized erythrocytes (100,000 to 500,000; obtained from a donor animal) on the first day of the experiment (D0). After 24 hours, the standard agents or pharmachin compounds were administered by gavage at daily intervals for three successive days. Initially the test compounds were examined at 128 mg/kg/day, 64 mg/kg/day, 16 mg/kg/day and 4 mg/kg/day and including a vehicle-only control. […] The parasite burden in each blood sample was determined by direct microscopic analysis of methanol-fixed, Giemsa-stained blood smears. […] The ED50 value is the dosage of drug required to achieve a 50% reduction in parasitemia relative to the vehicle-only control; non-linear regression analysis was employed to generate ED50s from the accumulated data.
Mice were split into groups of 3 each and animals were dosed by gavage at the following dosages: 128 mg/kg; 64 mg/kg; 16 mg/kg; and 3 mg/kg. The drugs were administered daily for 3 days and blood smears were taken on the 4th day. […] ED50 values were calculated by graphical analysis of the dose-response effect.

As for “5.7-Difluoro-3-Methyl-4-(3-t-butylaminpropyl-amino)-Quinoline [Pharmachin 130]”, the IC50 in assay [1] (multidrug-resistant 7G8 strain, 72 hrs, mean of at least two experiments in triplicate) is 25.9 nM; in assay [2] (chloroquine sensitive D6 strain; 72 hrs; mean of at least two experiments in triplicate; read-out: Antiplasmodial IC50, D6 strain), 15 nM; in assay [3] (multidrug-resistant Dd2 strain, 72 hrs, mean of at least two experiments in triplicate), 21.9 nM.

`Cc1cnc2cc(Cl)ccc2c1N1CCN(CCCN2CCN(c3c(C)cnc4cc(Cl)ccc34)CC2)CC1` [3-methyl-piperaquine]: the IC50 came out at 9.5 nM in assay [1] (setting [6]), 4.6 nM in assay [2] (setting [7]) and 6.5 nM in assay [3] (setting [8]).

On to `CCN(CC)CCCNC1=CCNc2cc(Cl)ccc21` [AQ-13, reference compound], for which the IC50 in assay [1] (setting [6]) was 12 nM; in assay [2] (setting [7]) it was 7.2 nM; in assay [3] (setting [8]) it was 8.1 nM. For the same molecule, in assay [4] (in words), the “Antiplasmodial activity against all tested drug resistant strains” value was “high level of antiplasmodial activity”.

Consider `Clc1ccc2c(NCCCNC34CC5CC(CC(C5)C3)C4)ccnc2c1` [AQ-13-AD, 7-Chloro-(3-adamantylamino)-aminopropylquinoline], for which the figures for the IC50 in assay [2] (setting [7]), in assay [3] (setting [8]) and in assay [5] (setting [9]) were 3.8 nM, 4.2 nM and 4.9 nM, respectively.

Regarding `O=C1C(O)=C([C@H]2CC[C@H](c3ccc(Cl)cc3)CC2)C(=O)c2ccccc21` [Atovaquone, reference compound], the IC50 in assay [2] (setting [7]) worked out at 0.1 nM; in assay [3] (setting [8]) it was 0.1 nM; in assay [5] (setting [9]), 7700 nM.

Take `CCN(CC)CCCC(C)Nc1ccnc2cc(Cl)ccc12` (stereo not shown) [Chloroquine, reference compound]: the IC50 worked out at 55 nM in assay [1] (Plasmodium falciparum, 7G8, 72 h); 11.2 nM in assay [2] (Plasmodium falciparum, D6, 72 h, read-out: Antiplasmodial IC50, D6 strain); 160 nM in assay [3] (Plasmodium falciparum, DD2, 72 h); 144 nM in assay [5] (TM90, 72 h).

For the molecule `CCN(CC)CCCNc1c(C)cnc2cc(Cl)ccc12` [Pharmachin 112, 7-Chloro-3-Methyl-4-(3-(diethylamino)-propylamino)-Quinoline], the IC50 in assay [2] (setting [7]) came to 12.8 nM; in assay [3] (setting [8]), 17.7 nM; in assay [5] (setting [9]) it was 16.6 nM. The “ED50 (50% reduction in parasitemia)” value with Plasmodium yoelii was found to be 6.5 mg/kg/day.

Turning to `CCN(CC)CCNc1c(C)cnc2cc(Cl)ccc12` [Pharmachin 127, 7-Chloro-3-Methyl-4-(3-(diethylamino)-ethylamino)-Quinoline], the IC50 in assay [2] (setting [7]) was 14.1 nM; in assay [3] (setting [8]) it was 17.8 nM; in assay [5] (setting [9]), 18.3 nM.

With `Cc1cnc2cc(Cl)ccc2c1NCCCNC(C)(C)C` [Pharmachin 128, 7-Chloro-3-Methyl-4-(3-t-butylaminopropylamino)-quinoline], the IC50 in assay [1] (setting [6]) was 11.3 nM; in assay [2] (setting [7]), 6.2 nM; in assay [3] (setting [8]) it was 11.6 nM; in assay [5] (setting [9]), 12 nM; in assay [4] (range over D6, Dd2, Tm90.C2B, 7G8, read-out: IC50 values ranging, all 4 P. falciparum strains), 6.2 to 12 nM. Also, the “Animals recrudesced 2 weeks after the last dose” value in the assay on P. berghei (ANKA/GFP) (16 mg/kg/day group, gavage, 4 days, citrate salt) is recorded as 2 of the 5. Further, the “Bloodstream parasites on 5th day” value with P. berghei (ANKA/GFP) (16 mg/kg/day, gavage, 4 days, citrate salt) was “completely cleared”; in the assay on P. berghei (ANKA/GFP) (setting [10]), “completely cleared”. The “Parasitemia over full 30-day examination period (scored as cures)” value in the assay on P. berghei (ANKA/GFP) (setting [10]) is on record as “remained aparasitemic”. In addition, the ED50 with P. berghei (ANKA/GFP) (setting [11]) is 2.7 mg/kg/day. The ED90 in the assay with P. berghei (ANKA/GFP) (setting [11]) was 4.7 mg/kg/day. Moreover, the “ED50 (50% reduction in parasitemia)” value in the assay on Plasmodium yoelii is listed as 2.5 mg/kg/day.

For `Cc1cnc2ccc(Cl)cc2c1NCCCNC(C)(C)C` [Pharmachin 129, 6-Chloro-3-Methyl-4-(3-t-butylaminopropylamino)-Quinoline], the IC50 in assay [2] (setting [7]) was determined as 94.8 nM; in assay [3] (setting [8]), 127 nM.

Consider `C=C[C@H]1C[N@@]2CC[C@H]1C[C@H]2[C@H](O)c1ccnc2ccc(OC)cc12` [Quinine, reference compound], for which the IC50 in assay [1] (setting [6]) was 29.5 nM; in assay [2] (setting [7]), 19 nM; in assay [3] (setting [8]) it was 87 nM; in assay [5] (setting [9]), 96 nM.

In the case of `CCN(CC)CCCC(C)Nc1c(C)cnc2cc(Cl)ccc12` (stereo not shown) [Sontochin, 3-methyl-chloroquine, reference compound], the IC50 was 8.6 nM in assay [2] (setting [7]); 11.3 nM in assay [3] (setting [8]); 13.8 nM in assay [5] (setting [9]); 8.6 to 13.8 nM in assay [4] (range over strains as worded in text, read-out: IC50 values ranging, drug resistant strains of P. falciparum).

A word on the IC50: it is the concentration needed to halve the response being measured. One may read the ED50 as the midpoint of the dose-response relation.
